In publication PMC11219744, “Renal excretion of 1,2-dihydroxynaphthalene (DHN) in firefighting instructors after exposure to polycyclic aromatic hydrocarbons (PAHs) during live fire training” (Scientific Reports, 2024):

Tests used:
[1] = cited from earlier work
[2] = Human biomonitoring: urinary excretion of PAH metabolites (GC–MS/MS, creatinine-normalised) in firefighting instructors before and after live fire training
Description: All study participants (n = 6) were male firefighting instructors from Germany. […] Before the start of the study, all subjects declared that they were non-smokers. Tattoo bearers were excluded before the start of the study as tattoo ink can be a potential source of polycyclic aromatic hydrocarbons. The authors declare that this research was conducted in accordance with the relevant regulations, including the Declaration of Helsinki. All subjects gave written informed consent after being informed about the study by the investigator.
Exposure to combustion products took place in several training sessions that simulated live fire conditions by burning a defined number of uncoated chipboards in an overseas container. The container was located in a hall with exhaust air purification. […] In addition, all subjects wore long-sleeved undergarments under their turnout gear. Only laundered clothing and cleaned equipment (e.g. helmets, masks) were used. The donning and doffing of clothing and protective equipment took place only in a smoke-free, well-ventilated area. Immediately after taking off the firefighters' gloves after training, the participants put on nitrile gloves for further undressing. After removing the helmet, flash hood and SCBA face shield, the participants put on particle filtering half masks (FFP3) to remove contaminated turnout jackets and trousers. After a break for rehydration and cool down still wearing their undergarments, the participants went to shower. […] The interval between two consecutive training sessions for each subject was at least six days. […] In this way, each subject was biomonitored at each of the five training sessions. All additional (unscheduled) urinations between the predefined times were also collected in separate containers and pooled afterwards with the next scheduled sample. […] A total of 270 samples were to be collected using this procedure for all participants and five training sessions of each individual. Subjects completed a questionnaire for each sampling period to account for possible pre-exposure or concurrent exposure to PAHs from sources other than the fire simulation unit, such as occupational exposure to combustion products, exposure to tobacco smoke (active/passive) and barbecue activities, and consumption of smoked or charbroiled foods.
In brief, the analytes were extracted by liquid–liquid extraction with n-hexane after enzymatic hydrolysis of the urine samples with ß-glucuronidase/arylsulfatase (isolated from helix pomatia) and derivatised by silylation with N-trimethylsilyl-N-methyl trifluoroacetamide afterwards. […] All standards were obtained from LGC-Standards, Wesel, Germany.
DHN in urine was determined referring to a method described in detail by Klotz et al.[29]. […] External calibration with internal standardisation by an isotopically labelled analogue of the target compound was done by analysis of pool urine samples spiked with the glucuronides of DHN and D6-1,2-dihydroxynaphthalene (internal standard) before enzymatic hydrolysis. Both standards are not commercially available and were obtained as a gift from the Institute of Occupational, Social and Environmental Medicine at the University of Erlangen-Nuremberg (Germany). A detailed description of the synthesis of the compounds is given by[26]. […] Up to now, there is no external quality assessment scheme available for DHN.
Urinary creatinine was analysed in the Institute of Clinical Chemistry and Laboratory Medicine of University Medical Centre of the Johannes Gutenberg University Mainz using a photometrical assay based on the method of[30].

[3] = upper margin of internal exposure typically found in smokers; cited from earlier work
[4] = Time to peak and initial elimination half-life of the urinary biomarkers (first-order model, linear mixed effects); format: in vivo, human
Text: The initial half-life of each biomarker was estimated using statistical methods described previously[6],[32]. In short, we estimated the first-order elimination rate constant λ based on the model in Eq. (1):1 C=C0+B·e^λ·t+∈
Here, C is the creatinine-adjusted concentration in urine after the uptake phase, C0 is the baseline concentration before training, B is the difference from peak to baseline concentration, t is the time since peak concentration, and ϵ is the error term. […] Using package nlme[33] for the statistical environment R[34],[35], the model was fitted as a linear mixed effects model for the log concentration difference to baseline ln(C–C0) as the outcome. The model was fitted simultaneously for all data and included fixed effects for biomarker, time since peak, and their interaction term. It used random slopes for time since peak and random intercepts for […]. Errors were assumed to be autocorrelated according to an AR(1) process.

[5] = parameters: method as in PMID 32464238; conditions: by scheduled sampling time; cited from earlier work
[6] = urinary excretion, time after onset of exposure

SMILES: c1ccc2ccccc2c1 [NAP, naphthalene]
- IARC carcinogenicity category [1]: group 2B (possibly carcinogenic to humans)

SMILES: Oc1ccc2ccccc2c1 [2-NAP, 2-hydroxynaphthalene]
- Proportion in the total excretion of the three naphthalene metabolites ([2]; after exposure (after sampling 3, rest of the sampling period), based on median concentrations): lower than 10%
- Increase in concentration from before exposure up to the maximum of excretion, factor ([2]; male, human, in vivo): about 6
- Concentration in urine, IQR ([2]; male, human, in vivo, 0 h): 4.55–9.78 µg/g creatinine
- Concentration in urine, range ([2]; male, human, in vivo, 0 h): 2.07–42.68 µg/g creatinine
- Concentration in urine, IQR ([2]; male, human, in vivo, 1 h): 11.05–18.20 µg/g creatinine
- Concentration in urine, median ([2]; male, human, in vivo, 1 h): 11.96 µg/g creatinine
- Concentration in urine, range ([2]; male, human, in vivo, 1 h): 3.97–58.89 µg/g creatinine
- Concentration in urine, median ([2]; male, human, in vivo, 2 h): 7.42 µg/g creatinine
- Concentration in urine, IQR ([2]; male, human, in vivo, 3 h): 8.14–14.40 µg/g creatinine
- Concentration in urine, median ([2]; male, human, in vivo, 3 h): 10.07 µg/g creatinine
- Concentration in urine, range ([2]; male, human, in vivo, 3 h): 5.62–23.16 µg/g creatinine
- Concentration in urine, IQR ([2]; male, human, in vivo, 6 h): 3.62–7.98 µg/g creatinine
- Concentration in urine, median ([2]; male, human, in vivo, 6 h): 5.12 µg/g creatinine
- Concentration in urine, range ([2]; male, human, in vivo, 6 h): 1.17–12.78 µg/g creatinine
- Concentration in urine, IQR ([2]; male, human, in vivo, 9 h): 2.34–5.27 µg/g creatinine
- Concentration in urine, median ([2]; male, human, in vivo, 9 h): 3.48 µg/g creatinine
- Concentration in urine, range ([2]; male, human, in vivo, 9 h): 1.30–11.32 µg/g creatinine
- Concentration in urine, IQR ([2]; male, human, in vivo, 11 h): 1.76–4.19 µg/g creatinine
- Concentration in urine, median ([2]; male, human, in vivo, 11 h): 3.14 µg/g creatinine
- Concentration in urine, range ([2]; male, human, in vivo, 11 h): 1.08–10.02 µg/g creatinine
- Concentration in urine, IQR ([2]; male, human, in vivo, 18 h): 1.93–4.24 µg/g creatinine
- Concentration in urine, median ([2]; male, human, in vivo, 18 h): 3.26 µg/g creatinine
- Concentration in urine, range ([2]; male, human, in vivo, 18 h): 1.02–14.56 µg/g creatinine
- Median increase in morning urine after exposure (sampling 9) vs. before (sampling 1) ([2]; male, human, in vivo, 18 h): 1.5 fold
- Concentration in urine, IQR ([2]; male, human, in vivo, -0.4 h): 1.13–3.47 µg/g creatinine
- Concentration in urine, median ([2]; male, human, in vivo, -0.4 h): 1.94 µg/g creatinine
- Concentration in urine, range ([2]; male, human, in vivo, -0.4 h): 0.21–10.94 µg/g creatinine
- Concentration in urine, IQR ([2]; male, human, in vivo, -4.2 h): 1.18–2.88 µg/g creatinine
- Concentration in urine, median ([2]; male, human, in vivo, -4.2 h): 2.00 µg/g creatinine
- Concentration in urine, range ([2]; male, human, in vivo, -4.2 h): 0.30–10.02 µg/g creatinine
- Median increase from baseline (sample 2) to peak excretion ([2]; peak: sample 5 for 1-PYR, sample 4 otherwise): 6.6 fold
- 95th percentile of urinary concentration in smokers [3]: 29.0 µg/g crea.
- half-life ([4]; male, human, initial elimination half-life after peak excretion, urine, read-out: Estimated half-life, mean (converted)): 5.2 h
- Time to peak, median [4, 6]: 3.3 h
- Time to peak, range [4, 6]: 2.2 to 11.2 h
- Time of peak excretion after the end of the training session [5]: 1 h
